Experimental data published in ChEMBL document CHEMBL2396603, “Heterocyclic modification of a novel bicyclo[3.1.0]hexane NPY1 receptor antagonist” (Bioorg Med Chem Lett, 2013).
In brackets after ≈: the same amount, converted by molar mass. Activity calls are given as the source filed them. The rule behind the calls is not given here.

What was measured:
[1] = target: T1, Neuropeptide Y receptor type 1 (Homo sapiens, UniProt P25929); assay: Displacement of [125I]PYY from NPY1 receptor in human SK-N-MC cells after 1 hr by microbeta scintillation counting analysis; format: cell-based
T1 sequence (P25929 whole entry): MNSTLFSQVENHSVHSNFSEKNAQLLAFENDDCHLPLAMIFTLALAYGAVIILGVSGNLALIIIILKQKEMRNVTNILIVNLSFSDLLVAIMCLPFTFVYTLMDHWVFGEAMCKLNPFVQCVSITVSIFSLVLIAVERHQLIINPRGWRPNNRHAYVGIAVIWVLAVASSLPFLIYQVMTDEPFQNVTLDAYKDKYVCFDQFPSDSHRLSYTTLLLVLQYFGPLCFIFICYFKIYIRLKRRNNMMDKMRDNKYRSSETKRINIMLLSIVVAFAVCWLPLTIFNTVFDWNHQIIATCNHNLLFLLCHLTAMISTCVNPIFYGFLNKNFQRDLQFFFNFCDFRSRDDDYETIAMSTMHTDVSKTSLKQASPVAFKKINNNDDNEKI

Rattus norvegicus [2] = assay: Antiobesity activity in Sprague-Dawley rat spontaneous nocturnal feeding model assessed as reduction in food intake at 35.6 to 60 mg/kg, po administered 2.5 hrs before onset of darkness measured during first hr; format: functional, organism-based
Rattus norvegicus [3] = assay: Antiobesity activity in Sprague-Dawley rat spontaneous nocturnal feeding model assessed as reduction in food intake at 10 to 30 mg/kg, ip administered 1 hr before onset of darkness measured during first hour and first 3 hrs of darkness; format: functional, organism-based
[4] = Drug uptake in rat brain at 10 mg/kg, ip after 15 mins; format: ADME, organism-based; set-up: dose 10 mg/kg, route intraperitoneal; conditions: read-out: Drug uptake
[5] = Oral bioavailability in rat at 20 mg/kg; format: ADME, organism-based; conditions: in vivo
[6] = Bioavailability in rat at 10 mg/kg, ip; format: ADME, organism-based; conditions: in vivo
[7] = Aqueous solubility of the compound in 40% aqueous trappsol; format: physicochemical

SMILES	IC50 [1] [µM]	further results
CCOc1cccc(C2(N3CCN(c4cccnc4)CC3)C3CC(C)CC32)c1 (stereo unspecified)	0.892	
CCOc1cccc(C2(N3CCN(c4cccnn4)CC3)C3CC(C)CC32)c1 (stereo unspecified)	4.38	
CCOc1cccc(C2(N3CCN(Cc4ccccc4)CC3)C3CC(C)CC32)c1 (stereo unspecified)	> 10	
CCOc1cccc(C2(N3CCN(c4cnccn4)CC3)C3CC(C)CC32)c1 (stereo unspecified)	0.265	
CCOc1cccc(C2(N3CCN(c4ccncc4)CC3)C3CC(C)CC32)c1 (stereo unspecified)	> 10	
CCOc1cccc(C2(N3CCN(c4ccccn4)CC3)C3CC(C)CC32)c1 (stereo unspecified)	0.042	Activity (Rattus norvegicus [2]): Active; Activity (Rattus norvegicus [3]): Active; concentration at 0.25 h [4]: > 100 nM; bioavailability [5]: 53%; bioavailability [6]: 40%; solubility [7]: > 50000 µg/mL
CCOc1cccc(C2(N3CCN(c4cncnc4)CC3)C3CC(C)CC32)c1 (stereo unspecified)	5.03	
CCOc1cccc(C2(N3CCN(c4cccc(OC)n4)CC3)C3CC(C)CC32)c1 (stereo unspecified)	> 10	
CCOc1cccc(C2(N3CCN(c4ccc(Cl)nn4)CC3)C3CC(C)CC32)c1 (stereo unspecified)	> 10	
CCOc1cccc(C2(N3CCN(c4ccccc4N)CC3)C3CC(C)CC32)c1 (stereo unspecified)	> 10	
CCOc1cccc(C2(N3CCN(c4ncccn4)CC3)C3CC(C)CC32)c1 (stereo unspecified)	0.054	solubility [7]: 10000 µg/mL (≈ 26.4 mM)
CCOc1cccc(C2(N3CCN(c4ccccc4)CC3)C3CC(C)CC32)c1 (stereo unspecified)	0.062	
CCOc1cccc(C2(N3CCN(c4ncncn4)CC3)C3CC(C)CC32)c1 (stereo unspecified)	4.27	
CCOc1cccc(C2(N3CCNCC3)C3CC(C)CC32)c1 (stereo unspecified)	> 10	
